Results from US20200085839A1, “COMBINATION OF IMMUNOTHERAPEUTICS AND BISFLUOROALKYL-1,4-BENZODIAZEPINONE COMPOUNDS FOR TREATING LYMPHOMAS” (Ayala Pharmaceuticals Inc., priority 2018, published 2020).
Entries after “also recorded” stand apart in the source; their conditions may differ.

Experiments:
Assay type in all cases: cell-based, human
[1] = system: B-ALL cell lines RSV411, REH, 018Z; experiment: Cell surface BCMA by FACS, B-ALL cell lines; settings: up to 10 μM, 24 h
Experimental: (§1) Cells were seeded at 1×10^4 cells/well in a total volume of 250 μl into a 96-well plate. The cells were cultured in RPMI supplemented with 10% FCS.
(§2) The tested compounds (Compound 1 and Compound 22) were added to the cell cultures at concentrations of: 0, 10, 1, 0.5, 0.1, 0.01, 0.001 μM ([…], 10 nM, 100 nM, 500 nM, 1000 nM, and 10000 nM). Following 24 hours of incubation at 37° C., the cells were collected and stained with anti-BCMA antibody and immediately analyzed by FACS.
The effect of γ-secretase inhibitors on cell surface BCMA levels in Acute B-Cell Lymphoblastic Leukemia (B-ALL) cell lines was also observed using flow cytometry (FIG. 5). Cells from three different B-ALL cell lines were treated for 24 hours with different concentrations (0-10 μM) of GSIs (Compound 1 and Compound 22).

[2] = system: SP49, Toledo, RC, SUDHL-4 and SUDHL-6 lymphoma cell lines; experiment: Cell surface BCMA by FACS, five lymphoma cell lines; settings: SUDHL-4, SUDHL-6, 10 nM or more, 24 h
Experimental: as §1, §2
The effect of γ-secretase inhibitors on cell surface BCMA levels in lymphoma cell lines was observed using flow cytometry (FACS analysis) (FIG. 4). Cells from five different lymphoma cell lines were treated for 24 hours with different concentrations of Compound 1 (FIG. 4A) or Compound 22 (FIG. 4B). Lymphoma cell lines treated were: SP49 (MCL with Notch4 GOF); Toledo (DLBCL); RC (Double Hit DLBCL—MYC, BCL2); SUDHL-4 (DLBCL); and SUDHL-6 (DLBCL). GSI concentrations were 0, 1 nM, 10 nM, 100 nM, 500 nM, 1000 nM, and 10000 nM.

[3] = system: U266 cells (MM cell line); experiment: Soluble BCMA in cell media by ELISA; settings: for BCMA shedding: MM cells (U266), cell-bound and soluble BCMA
Experimental: FIG. 3. Levels of soluble BCMA In cell media after Incubation of multiple myeloma (MM) cells with γ-secretase inhibitors (GSIs). U266 cells (MM cell line) were incubated with 0.3 nM, 1 nM, 3 nM and 10 nM of GSI (Compound 1, Compound 22, LY3039478 or PF3084014) for 24 hours, and BCMA levels were measured by ELISA.
(§3) For detecting levels of soluble and cell-bound BCMA, U266 cells (MM cell line) were seeded at 1×10^5 cells/well in a total volume of 250 μl into a 96-well plate. The cells were cultured in RPMI medium supplemented with 10% FCS. GSIs (Compound 1, Compound 22, LY3039478 (Lilly), and PF3084014 (Pfizer)) were added to U266 cell cultures at a concentration of 0.3 nM, 0.5 nM, 1 nM and 3 nM for soluble BCMA and at a concentration of […]. Following 24 hours of incubation at 37° C., the cells were collected, and BCMA levels were evaluated in both the cells (cell-bound BCMA) and the cell media (soluble BCMA). Cells were stained with an anti-BCMA antibody (PE anti-human CD269 BCMA, Biolegend). Soluble BCMA levels were analyzed by ELISA (Human BCMA/TNFRSF17 DuoSet kit: R&D Systems).

[4] = system: U266 cells (MM cell line); experiment: Cell-bound BCMA by flow cytometry; settings: 24 h; for cell-bound BCMA levels: FIG. 1; for effectiveness at increasing cell-bound BCMA compared with other GSIs: all doses above 0.3 nM
Experimental: FIG. 1. Levels of cell-bound BCMA en multiple myelma (MM) cells Incubated with γ-secretase inhibitors (GSIs). U266 cells (MM cell line) were incubated with 0.3 nM, 0.5 nM, 1 nM or 3 nM of GSI (Compound 1, Compound 22, LY3039478 or PF3084014) for 24 hours, and BCMA levels were measured by flow cytometry.
as §3

[5] = system: […] cell lines, comprising 9 subtypes of lymphomas; experiment: Cell surface BCMA by FACS, lymphoma cell line panel
Experimental: (§4) […] cell lines, comprising 9 subtypes of lymphomas (see Table 1), were seeded at 1×10^5 cells/well in a total volume of 250 μl into a 96-well plate. The cells were cultured in RPMI medium supplemented with 10% FCS. Compound (22) was added to the cell cultures at a concentration of 10 μM, 1 μM, 100 nM, 10 nM, 1 nM, 100 pM, 10 pM, 1 pM, and 100 fM, and cell lines (8 from Hadassah Medical Center, 31 from Eurofins) were incubated at 37° C. for 24 hours with Compound (22). Following incubation, the cells were collected and BCMA levels were evaluated on the cell surface for cell-bound BCMA. Cells were stained with an anti-BCMA antibody (PE anti-human 19F2 BCMA, Biolegend), and cell surface BCMA levels were determined by FACS analysis (Mean Fluorescence Intensity. Soluble BCMA levels were analyzed by ELISA (Human BCMA/TNFRSF17 DuoSet kit: R&D Systems).

[6] = system: […] cell lines, comprising 9 subtypes of lymphomas; experiment: Soluble BCMA by ELISA, lymphoma cell line panel
Experimental: as §4

[7] = cell lines derived from Mantle Cell Lymphoma, DLBCL, Burkitt's Lymphoma, B-cell Lymphoma, 24 h

Row | SMILES | BCMA expression [1] | cell surface BCMA levels [2] | BCMA shedding [3] | cell-bound BCMA levels [4] | effectiveness at increasing cell-bound BCMA compared with other GSIs [4] | cell-bound BCMA levels ([5]; B-ALL, histiocytic lymphoma, anaplastic large cell lymphoma, cutaneous T-cell lymphoma cell lines) | cell-bound BCMA levels [5, 7] | cell-bound BCMA levels ([5]; cell lines from Hodgkin's Lymphoma patients) | increase of BCMA expression ([5]; certain lymphomas) | mBCMA ([5]; certain lymphomas) | soluble BCMA [6, 7] | shedding ([6]; certain lymphomas) | BCMA shedding ([6]; lymphoma cells) | soluble BCMA ([6]; some Lymphoma/Leukemia cell lines) | potency in reducing soluble BCMA in cell media compared with other GSIs ([3]; U266, 24 h)
1 | CN1C(=O)[C@@H](NC(=O)[C@H](CCC(F)(F)F)[C@H](CCC(F)(F)F)C(N)=O)N=C(c2ccccc2)c2ccccc21 [Compound 1, (2R,3S)—N-((3S)-1-methyl-2-oxo-5-phenyl-2,3-dihydro-1H-1,4-benzodiazepin-3-yl)-2,3-bis(3,3,3-trifluoropropyl)succinamide] | did not affect BCMA expression | elevated BCMA levels | inhibit BCMA shedding | increased cell-bound BCMA levels | as effective as LY3039478 and more effective than PF3084014 | – | – | – | – | – | – | – | – | – | –
2 | Cc1cccc2c1NC(=O)[C@@H](NC(=O)[C@H](CCC(F)(F)F)[C@H](CCC(F)(F)F)C(N)=O)N=C2c1cccc(F)c1 [Compound (22), (2R,3S)—N-((3S)-5-(3-fluorophenyl)-9-methyl-2-oxo-2,3-dihydro-1H-1,4-benzodiazepin-3-yl)-2,3-bis(3,3,3-trifluoropropyl)succinamide] | did not affect BCMA expression | elevated BCMA levels | inhibit BCMA shedding | increased cell-bound BCMA levels | as effective as LY3039478 and more effective than PF3084014 | did not increase cell-bound BCMA levels | increased cell-bound BCMA levels | increased cell-bound BCMA levels | Compound (22) increases BCMA expression in certain lymphomas by 2-9 fold | increases mBCMA | reduced soluble BCMA | abrogates shedding | decreases BCMA shedding from some lymphomas; also recorded: inhibits BCMA shedding | Compound (22) decreases soluble BCMA in some Lymphoma/Leukemia cell lines | more potent than Compound 1; also recorded: as potent as LY3039478; also recorded: more potent than PF3084014
